Measured values: patent US20200385371A1 (Propellon Therapeutics Inc., priority 2017, published 2020)
pEC50, pIC50, pKd: −log10 of the molar value.

Assays:
[1] = test system: MV4-11 cells; assay: Cell proliferation assay (ATPlite); format: cell-based; conditions: Homo sapiens, 120 h; MV4-11 cells, five days; read-out: GI MV411 EC50
Outline: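 Cells seeded at 1,000/well in Alpha-MEM with 10% FBS, treated with compound over a 10-point range (top 10 μM) or DMSO. Grown five days at 37° C, 5% CO2; viability by ATPlite luminescence.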

[2] = biological target: T1, WDR5 (Homo sapiens, UniProt P61964); assay: Fluorescence Polarization (FP) binding assay
Outline: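 Displacement of fluorescein-labelled H3 (1-15) (30 nM, with 0.3 μM WDR5) or 9-Ala-FAM (20 nM, with 0.05 μM WDR5) in 80 mM sodium phosphate pH 6.5, 20 mM KCl, 0.008% Triton X-100. FP read at 485/528 nm (H3) or 480/540 nm (9-Ala-FAM); Kdisp from hyperbolic fit, mean of quadruplicates.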

[3] = biological target: T1, WDR5; assay: Surface Plasmon Resonance (SPR) assay; format: binding; design: Full length WDR5 with an N-terminal His tag and C-terminal AviTag; His tag (N); made in house; host or cells: E. coli; conditions: read-out: SPR Kd
Outline: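 Full-length biotinylated WDR5 (N-His, C-AviTag, E. coli) captured (~3000 RU) on streptavidin SA chip; Biacore T200. HBS-EP pH 7.4 plus 5% DMSO running buffer, 40 μl/min.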

| SMILES | pEC50 [1] | pIC50 [2] | pKd [3] |
| --- | --- | --- | --- |
| CC(C)[C@H]1CN(c2ncc(-c3c(F)cc(N4C[C@@H](C)N(C)[C@@H](C)C4)c(NC(=O)c4c[nH]c(=O)cc4C(F)(F)F)c3F)cn2)CCO1 [Example 103, N-(2,4-difluoro-3-(2-((S)-2-isopropylmorpholino)pyrimidin-5-yl)-6-((3S,5R)-3,4,5-trimethylpiperazin-1-yl)phenyl)-6-oxo-4-(trifluoromethyl)-1,6-dihydropyridine-3-carboxamide] | 7.83 | 7.75 | 8.30 |
| CC(C)[C@@H]1CN(c2ncc(-c3c(F)cc(N4CCN(C)[C@@H](C)C4)c(NC(=O)c4c[nH]c(=O)cc4C(F)(F)F)c3F)cn2)CCO1 [Example 104, N-(6-((S)-3,4-dimethylpiperazin-1-yl)-2,4-difluoro-3-(2-((R)-2-isopropylmorpholino)pyrimidin-5-yl)phenyl)-6-oxo-4-(trifluoromethyl)-1,6-dihydropyridine-3-carboxamide] | 7.69 | 7.78 | 8.65 |
| CC(C)[C@@H]1CN(c2ncc(-c3c(F)cc(N4C[C@@H](C)N(C)[C@@H](C)C4)c(NC(=O)c4c[nH]c(=O)cc4C(F)(F)F)c3F)cn2)CCO1 [Example 105, N-(2,4-difluoro-3-(2-((R)-2-isopropylmorpholino)pyrimidin-5-yl)-6-((3S,5R)-3,4,5-trimethylpiperazin-1-yl)phenyl)-6-oxo-4-(trifluoromethyl)-1,6-dihydropyridine-3-carboxamide] | 7.84 | 7.83 | 8.41 |
| C[C@H]1CN(c2cc(F)c(C3=CCN(c4ccnc(C#N)n4)C3)c(F)c2NC(=O)c2c[nH]c(=O)cc2C(F)(F)F)CCN1C [Example 107, (S)—N-(3-(1-(2-cyanopyrimidin-4-yl)-2,5-dihydro-1H-pyrrol-3-yl)-6-(3,4-dimethylpiperazin-1-yl)-2,4-difluorophenyl)-6-oxo-4-(trifluoromethyl)-1,6-dihydropyridine-3-carboxamide] | 7.22 | 7.84 | 8.58 |
| C[C@H]1CN(c2cc(F)c(C3=CCN(c4ccnc(C#N)n4)CC3)c(F)c2NC(=O)c2c[nH]c(=O)cc2C(F)F)CCN1C [Example 108, (S)—N-(3-(1-(2-cyanopyrimidin-4-yl)-1,2,3,6-tetrahydropyridin-4-yl)-6-(3,4-dimethylpiperazin-1-yl)-2,4-difluorophenyl)-4-(difluoromethyl)-6-oxo-1,6-dihydropyridine-3-carboxamide] | 7.52 | 7.85 | 8.78 |
| C[C@@H]1CN(c2ncc(-c3c(F)cc(N4CCN(C)[C@@H](C)C4)c(NC(=O)c4ccc(F)cc4C(F)F)c3F)cn2)C[C@H](C)O1 [Example 110, 2-(Difluoromethyl)-N-(3-(2-((2S,6R)-2,6-dimethylmorpholino)pyrimidin-5-yl)-6-((S)-3,4-dimethylpiperazin-1-yl)-2,4-difluorophenyl)-4-fluorobenzamide formic acid] | 7.48 | 7.96 | 8.71 |
| C[C@H]1CN(c2cc(F)c(C3=CCN(c4ccnc(C#N)n4)CC3)c(F)c2NC(=O)c2c[nH]c(=O)cc2C(F)(F)F)CCN1C [Example 112, (S)—N-(3-(1-(2-cyanopyrimidin-4-yl)-1,2,3,6-tetrahydropyridin-4-yl)-6-(3,4-dimethylpiperazin-1-yl)-2,4-difluorophenyl)-6-oxo-4-(trifluoromethyl)-1,6-dihydropyridine-3-carboxamide] | 7.46 | 7.82 | 8.62 |
| C[C@H]1CN(c2cc(F)c(C3=CCCN(c4ccnc(C#N)n4)C3)c(F)c2NC(=O)c2c[nH]c(=O)cc2C(F)F)CCN1C [Example 113, (S)—N-(3-(1-(2-cyanopyrimidin-4-yl)-1,2,5,6-tetrahydropyridin-3-yl)-6-(3,4-dimethylpiperazin-1-yl)-2,4-difluorophenyl)-4-(difluoromethyl)-6-oxo-1,6-dihydropyridine-3-carboxamide] | 7.07 | 7.83 | 8.70 |
| C[C@@H]1CN(c2ncc(-c3c(F)cc(N4CCN(C)[C@@H](C)C4)c(NC(=O)c4c[nH]c(=O)cc4C(F)F)c3F)cn2)C[C@@H](C)O1 [Example 115, 4-(Difluoromethyl)-N-(3-(2-((2R,6R)-2,6-dimethylmorpholino)pyrimidin-5-yl)-6-((S)-3,4-dimethylpiperazin-1-yl)-2,4-difluorophenyl)-6-oxo-1,6-dihydropyridine-3-carboxamide] | 8.03 | 7.86 | 9.15 |
| C[C@@H]1CN(c2ncc(-c3c(F)cc(N4C[C@@H](C)N(C)[C@@H](C)C4)c(NC(=O)c4c[nH]c(=O)cc4C(F)F)c3F)cn2)C[C@@H](C)O1 [Example 116, 4-(Difluoromethyl)-N-(3-(2-((2R,6R)-2,6-dimethylmorpholino)pyrimidin-5-yl)-2,4-difluoro-6-((3S,5R)-3,4,5-trimethylpiperazin-1-yl)phenyl)-6-oxo-1,6-dihydropyridine-3-carboxamide] | 7.44 | 7.82 | 8.95 |
| CC(C)[C@@H]1CN(c2ncc(-c3c(F)cc(N4CCN(C)[C@@H](C)C4)c(NC(=O)c4c[nH]c(=O)cc4C(F)F)c3F)cn2)CCO1 [Example 117, 4-(Difluoromethyl)-N-(6-((S)-3,4-dimethylpiperazin-1-yl)-2,4-difluoro-3-(2-((R)-2-isopropylmorpholino)pyrimidin-5-yl)phenyl)-6-oxo-1,6-dihydropyridine-3-carboxamide] | 7.55 | 7.87 | 9.08 |
| CC(C)[C@@H]1CN(c2ncc(-c3c(F)cc(N4C[C@@H](C)N(C)[C@@H](C)C4)c(NC(=O)c4c[nH]c(=O)cc4C(F)F)c3F)cn2)CCO1 [Example 118, N-(2,4-difluoro-3-(2-((R)-2-isopropylmorpholino)pyrimidin-5-yl)-6-((3S,5R)-3,4,5-trimethylpiperazin-1-yl)phenyl)-4-(difluoromethyl)-6-oxo-1,6-dihydropyridine-3-carboxamide] | 7.91 | 7.92 | 9.02 |

More lines, in order of rising pEC50 [1], values ahead:

| pEC50 [1] | pIC50 [2] | pKd [3] | SMILES |
| --- | --- | --- | --- |
| 7.44 | 7.80 | 8.62 | C[C@H]1CN(c2cc(F)c(C3=CCCN(c4ccnc(C#N)n4)C3)c(F)c2NC(=O)c2c[nH]c(=O)cc2C(F)(F)F)CCN1C [Example 114, (S)—N-(3-(1-(2-cyanopyrimidin-4-yl)-1,2,5,6-tetrahydropyridin-3-yl)-6-(3,4-dimethylpiperazin-1-yl)-2,4-difluorophenyl)-6-oxo-4-(trifluoromethyl)-1,6-dihydropyridine-3-carboxamide] |
| 7.56 | 7.82 | 9.03 | C[C@H]1CN(c2cc(F)c(C3=CCN(c4ccnc(C#N)n4)C3)c(F)c2NC(=O)c2c[nH]c(=O)cc2C(F)F)CCN1C [Example 106, (S)—N-(3-(1-(2-cyanopyrimidin-4-yl)-2,5-dihydro-1H-pyrrol-3-yl)-6-(3,4-dimethylpiperazin-1-yl)-2,4-difluorophenyl)-4-(difluoromethyl)-6-oxo-1,6-dihydropyridine-3-carboxamide] |
| 7.84 | 7.93 | 9.36 | CC(C)[C@H]1CN(c2ncc(-c3c(F)cc(N4CCN(C)[C@@H](C)C4)c(NC(=O)c4c[nH]c(=O)cc4C(F)(F)F)c3F)cn2)CCO1 [Example 102, N-(6-((S)-3,4-dimethylpiperazin-1-yl)-2,4-difluoro-3-(2-((S)-2-isopropylmorpholino)pyrimidin-5-yl)phenyl)-6-oxo-4-(trifluoromethyl)-1,6-dihydropyridine-3-carboxamide] |
| 7.93 | 7.68 | 8.21 | C[C@@H]1CN(c2cc(F)c(-c3cnc(N4CCO[C@@H](C)C4)nc3)c(F)c2NC(=O)c2c[nH]c(=O)cc2C(F)(F)F)C[C@H](C)N1C [Example 101, N-(2,4-difluoro-3-(2-((S)-2-methylmorpholino)pyrimidin-5-yl)-6-((3S,5R)-3,4,5-trimethylpiperazin-1-yl)phenyl)-6-oxo-4-(trifluoromethyl)-1,6-dihydropyridine-3-carboxamide] |
| 8.02 | 7.85 | 8.89 | C[C@@H]1CN(c2ncc(-c3c(F)cc(N4C[C@@H](C)N(C)[C@@H](C)C4)c(NC(=O)c4c[nH]c(=O)cc4C(F)F)c3F)cn2)C[C@H](C)O1 [Example 111, 4-(Difluoromethyl)-N-(3-(2-((2S,6R)-2,6-dimethylmorpholino)pyrimidin-5-yl)-2,4-difluoro-6-((3S,5R)-3,4,5-trimethylpiperazin-1-yl)phenyl)-6-oxo-1,6-dihydropyridine-3-carboxamide] |
| 8.13 | 7.84 | 8.59 | C[C@@H]1CN(c2ncc(-c3c(F)cc(N4C[C@@H](C)N(C)[C@@H](C)C4)c(NC(=O)c4ccc(F)cc4C(F)F)c3F)cn2)C[C@H](C)O1 [Example 109, 2-(Difluoromethyl)-N-(3-(2-((2S,6R)-2,6-dimethylmorpholino)pyrimidin-5-yl)-2,4-difluoro-6-((3S,5R)-3,4,5-trimethylpiperazin-1-yl)phenyl)-4-fluorobenzamide Formic Acid] |
